Reference: patent publication US12421230B2, “Tricyclic heteroaryl compounds useful as IRAK4 inhibitors” (BRISTOL-MYERS SQUIBB COMPANY, priority 2020, dated 2025)

Assays:
Human whole blood = experiment: IRAK4 Whole Blood Assay; type: cell-based; conditions: stimulated with TLR2 agonist lipoteichoic acid 10 μg/mL for 5 hours, IL-6 levels
Protocol: Human whole blood containing the anti-coagulant ACD-A was plated in 384-well plate (25 μL/well) and incubated with compounds for 60 minutes at 37° C. in a 5% CO2 incubator. The blood was stimulated with a TLR2 agonist, 10 μg/mL final concentration of lipoteichoic acid (Invivogen, San Diego, CA) in 25 μL RPMI (Gibco) for 5 hours in a 5% CO2 incubator. At the end of the incubation, plates were centrifuged at 2300 rpm for 5 minutes. Supernatants were harvested and analyzed for IL-6 levels by Flow Cytometry beads assay (BD Biosciences, San Jose, CA).

IRAK4 = target: T1, IRAK4 (Homo sapiens, UniProt Q9NWZ3); experiment: IRAK4 Inhibition Assay; type: biochemical; conditions: ATP 500 μM; fluoresceinated peptide 1.5 μM; IRAK4 0.6 nM; 60 min room temperature; Caliper LABCHIP
T1 sequence (Q9NWZ3 1-460): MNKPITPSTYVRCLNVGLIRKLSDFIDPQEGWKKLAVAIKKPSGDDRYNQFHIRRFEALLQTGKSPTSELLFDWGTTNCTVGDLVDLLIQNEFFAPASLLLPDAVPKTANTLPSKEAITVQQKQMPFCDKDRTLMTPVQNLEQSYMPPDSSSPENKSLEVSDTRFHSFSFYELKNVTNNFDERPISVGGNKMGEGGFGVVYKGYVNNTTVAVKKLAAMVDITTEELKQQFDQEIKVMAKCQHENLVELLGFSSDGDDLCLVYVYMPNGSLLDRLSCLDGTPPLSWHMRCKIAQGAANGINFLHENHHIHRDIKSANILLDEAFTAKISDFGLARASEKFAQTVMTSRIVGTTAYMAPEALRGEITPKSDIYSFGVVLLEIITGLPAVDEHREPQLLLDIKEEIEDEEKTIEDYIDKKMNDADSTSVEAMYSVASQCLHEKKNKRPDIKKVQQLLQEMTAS

SMILES | EC50 (Human whole blood) [nM] | IC50 (IRAK4) [nM]
Cc1cc(CNC(=O)c2cnc3c([nH]c4cc(C#N)ccc43)c2NC(C)C)on1 [Example 15, 7-cyano-4-(isopropylamino)-N-((3-methylisoxazol-5-yl)methyl)-5H-pyrido[3,2-b]indole-3-carboxamide] | 1450 | 16
CC(C)(O)[C@H]1C[C@H](NC(=O)c2cnc3c([nH]c4cc(C#N)ccc43)c2NC2CC2)C1 [Example 44, 7-cyano-4-(cyclopropylamino)-N-((1R,3R)-3-(2-hydroxypropan-2-yl)cyclobutyl)-5H-pyrido[3,2-b]indole-3-carboxamide] | 510 | 3.1
CC(C)Nc1c(C(=O)NCCN2CCOCC2)cnc2c1[nH]c1cc(C#N)ccc12 [Example 35, 7-cyano-4-(isopropylamino)-N-(2-morpholinoethyl)-5H-pyrido[3,2-b]indole-3-carboxamide] | 770 | 3
CC(C)Nc1c(-c2cn(CC3CC3)nn2)cnc2c1[nH]c1cc(C#N)ccc12 [Example 74, 3-(1-(cyclopropylmethyl)-1H-1,2,3-triazol-4-yl)-4-(isopropylamino)-5H-pyrido[3,2-b] indole-7-carbonitrile] | > 10000 | 9.2
CC(C)Nc1c(C(=O)NCc2cocn2)cnc2c1[nH]c1cc(C#N)ccc12 [Example 14, 7-cyano-4-(isopropylamino)-N-(oxazol-4-ylmethyl)-5H-pyrido[3,2-b]indole-3-carboxamide] | 3500 | 19
CC(C)(O)[C@H](F)CNC(=O)c1cnc2c([nH]c3cc(C#N)ccc32)c1Nc1cnn(CC(F)F)c1 [Example 23, (R)-7-cyano-4-((1-(2,2-difluoroethyl)-1H-pyrazol-4-yl)amino)-N-(2-fluoro-3-hydroxy-3-methylbutyl)-5H-pyrido[3,2-b]indole-3-carboxamide] | > 10000 | 15

More lines, now with the values ahead:

EC50 (Human whole blood) [nM] | IC50 (IRAK4) [nM] | SMILES
510 | 3.1 | CC(C)Nc1c(C(=O)NCCC(C)(C)F)cnc2c1[nH]c1cc(C#N)ccc12 [Example 38, 7-cyano-N-(3-fluoro-3-methylbutyl)-4-(isopropylamino)-5H-pyrido[3,2-b]indole-3-carboxamide]
2470 | 19 | CC(C)(O)[C@H](F)CNC(=O)c1cnc2c([nH]c3cc(C#N)ccc32)c1NC1CC(F)(F)C1 [Example 3, (R)-7-cyano-4-((3,3-difluorocyclobutyl)amino)-N-(2-fluoro-3-hydroxy-3-methylbutyl)-5H-pyrido[3,2-b]indole-3-carboxamide]
> 10000 | 5.4 | CC(C)Nc1c(C(=O)NCCC(C)(C)NC(=O)C2CC2)cnc2c1[nH]c1cc(C#N)ccc12 [Example 59, 7-cyano-N-(3-(cyclopropanecarboxamido)-3-methylbutyl)-4-(isopropylamino)-5H-pyrido[3,2-b]indole-3-carboxamide]
430 | 2 | CC(C)Nc1c(C(=O)NC[C@@H](F)C(C)(C)O)cnc2c1[nH]c1cc(C#N)ccc12 [Example 1, (R)-7-cyano-N-(2-fluoro-3-hydroxy-3-methylbutyl)-4-(isopropylamino)-5H-pyrido [3,2-b]indole-3-carboxamide]
